{"source": "paper PMC3933693", "about": "“Novel Inhibitors of Mitochondrial sn-Glycerol 3-phosphate Dehydrogenase” (PLoS ONE, 2014)", "key": {"[1]": {"tested_on": "flavin mononucleotide site of complex I (site IF) plus matrix NAD-linked dehydrogenases (site IF/DH)", "assay": "Site-specific H2O2 production from site IF/DH in skeletal muscle mitochondria", "format": "biochemical, rat", "details": "primary screen, ∼2.5 µM, average of duplicates", "outline": "(§1)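 Isolated rat skeletal muscle mitochondria; H2O2 read by Amplex UltraRed with added SOD and HRP. Site IF/DH: 5 mM glutamate, 5 mM malate, 4 µM rotenone. Site IIF: palmitoylcarnitine or succinate with rotenone/antimycin A/myxothiazol. Site IIIQo: succinate, rotenone, antimycin A. Screen at 2.5 µM, normalised as % change from DMSO.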"}, "[2]": {"tested_on": "skeletal muscle mitochondria", "assay": "Mitochondrial membrane potential (ΔΨm, TMRM) powered by glycerol phosphate", "format": "biochemical, rat", "method": "Mitochondrial membrane potential (ΔΨm) was estimated fluorimetrically as described previously [33] on the Varian fluorimeter, except the potentiometric dye TMRM was used in quench-mode in place of safranine O [34]. […] The effect of putative small-molecule inhibitors was normalized as the % change in fluorescence between vehicle treatment and complete depolarization by the uncoupler carbonyl cyanide-4-(trifluoromethoxy)phenylhydrazone (FCCP, 2 µM) added at the end of each run. When indicated, the K^+/H^+ exchanger nigericin (80 ng ⋅ ml^−1) was added to collapse the pH gradient across the mitochondrial inner membrane (ΔpH) and maximize ΔΨm.\nAdditionally, four microplate assays for ΔΨm were run in parallel to the H2O2 assays. These assays were as described under “Measurement of mitochondrial H2O2 production and membrane potential” except that each substrate condition was assayed in a separate microplate. […] Plates were incubated in the dark at room temperature for 30–40 min (H2O2) or 10–15 min (ΔΨm) after the addition of substrate, and endpoint fluorescence was measured on the Victor plate reader. […] Endpoints for the ΔΨm assays were determined in pilot experiments as the times for TMRM accumulation to reach a steady state. At room temperature, this was typically ∼ 5 min and remained stable for at least 30 min. Endpoint fluorescence values were normalized as described in the previous section with wells containing FCCP serving as positive controls for the ΔΨm assays."}, "[3]": {"tested_on": "skeletal muscle mitochondria", "assay": "Mitochondrial membrane potential (ΔΨm, TMRM) powered by succinate", "format": "biochemical, rat", "description": "Mitochondrial membrane potential (ΔΨm) was estimated fluorimetrically as described previously on the Varian fluorimeter, except the potentiometric dye TMRM was used in quench-mode in place of safranine O [34]. […] The effect of putative small-molecule inhibitors was normalized as the % change in fluorescence between vehicle treatment and complete depolarization by the uncoupler carbonyl cyanide-4-(trifluoromethoxy)phenylhydrazone (FCCP, 2 µM) added at the end of each run. When indicated, the K^+/H^+ exchanger nigericin (80 ng ⋅ ml^−1) was added to collapse the pH gradient across the mitochondrial inner membrane (ΔpH) and maximize ΔΨm.\nThe assay buffer for both H2O2 and ΔΨm measurements was 120 mM KCl, 5 mM HEPES, 1 mM EGTA, 0.3% (w/v) BSA without or with 250 nM free calcium at pH 7.0. All assays were performed with stirring at 37°C.\nStructure/activity analysis was performed on 18 structural analogs of two structurally-related hits from the primary screen (iGP-1 and iGP-2). These 20 compounds were tested in duplicate at 0.08–80 µM (0.1% DMSO final) in microplate format for effects on site-specific H2O2 production as described above. Additionally, four microplate assays for ΔΨm were run in parallel to the H2O2 assays. These assays were as described under “Measurement of mitochondrial H2O2 production and membrane potential” except that each substrate condition was assayed in a separate microplate. […] Plates were incubated in the dark at room temperature for 30–40 min (H2O2) or 10–15 min (ΔΨm) after the addition of substrate, and endpoint fluorescence was measured on the Victor plate reader. Endpoints were chosen for the H2O2 assays to provide good signal-to-noise ratios and linear rates of change without the indicator dye limiting the reaction. Endpoints for the ΔΨm assays were determined in pilot experiments as the times for TMRM accumulation to reach a steady state. […] Endpoint fluorescence values were normalized as described in the previous section with wells containing FCCP serving as positive controls for the ΔΨm assays."}, "[4]": {"tested_on": "skeletal muscle mitochondria", "assay": "Mitochondrial respiration (Seahorse XF24) in plate-attached skeletal muscle mitochondria", "format": "biochemical, rat", "description": "The effects of small-molecule inhibitors on respiration were tested in plate-attached skeletal muscle mitochondria using a Seahorse XF24 Analyzer according to published protocols. Briefly, mitochondria (2 or 4 µg protein) were attached to Seahorse assay plates by centrifugation in a mannitol and sucrose-based medium (Seahorse MAS buffer) containing 0.3% (w/v) BSA without or with 250 nM free calcium at pH 7.0. […] Compounds were added in these media just prior to loading the assay plate into the Seahorse instrument. Additions were made to set respiration in basal state 2 (substrate only), phosphorylating state 3 (5 mM ADP), non-phosphorylating state 4o (0.5 ug ⋅ mL^−1 oligomycin), and to reveal the non-mitochondrial rate (2 µM myxothiazol and 2.5 µM antimycin A). Each concentration of compound was tested in at least two wells on each plate. At least three biological replicates of each titration in each substrate condition were performed."}, "[5]": {"biological_target": "T1, flavin site of complex II (site IIF) (Rattus norvegicus, UniProt Q920L2)", "T1 construct": "from tissue; host or cells: skeletal muscle mitochondria", "T1 sequence (Q920L2 35-656)": "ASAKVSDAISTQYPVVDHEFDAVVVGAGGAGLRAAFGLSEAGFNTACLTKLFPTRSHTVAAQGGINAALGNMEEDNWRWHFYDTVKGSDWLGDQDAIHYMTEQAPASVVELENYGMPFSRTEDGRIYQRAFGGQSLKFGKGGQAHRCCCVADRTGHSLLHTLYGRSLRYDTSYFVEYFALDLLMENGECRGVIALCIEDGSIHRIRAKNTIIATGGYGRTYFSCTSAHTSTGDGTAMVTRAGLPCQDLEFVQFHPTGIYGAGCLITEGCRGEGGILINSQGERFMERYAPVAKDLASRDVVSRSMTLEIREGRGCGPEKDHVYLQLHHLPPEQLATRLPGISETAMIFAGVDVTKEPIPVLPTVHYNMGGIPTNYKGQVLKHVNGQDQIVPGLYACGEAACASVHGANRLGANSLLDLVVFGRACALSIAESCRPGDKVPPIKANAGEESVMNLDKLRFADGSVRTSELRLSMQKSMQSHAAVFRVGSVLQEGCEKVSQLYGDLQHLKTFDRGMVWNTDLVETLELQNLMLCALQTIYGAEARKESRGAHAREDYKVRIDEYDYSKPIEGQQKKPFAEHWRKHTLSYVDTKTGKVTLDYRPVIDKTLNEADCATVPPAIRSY", "T1 sequence (P21913 31-282 partner)": "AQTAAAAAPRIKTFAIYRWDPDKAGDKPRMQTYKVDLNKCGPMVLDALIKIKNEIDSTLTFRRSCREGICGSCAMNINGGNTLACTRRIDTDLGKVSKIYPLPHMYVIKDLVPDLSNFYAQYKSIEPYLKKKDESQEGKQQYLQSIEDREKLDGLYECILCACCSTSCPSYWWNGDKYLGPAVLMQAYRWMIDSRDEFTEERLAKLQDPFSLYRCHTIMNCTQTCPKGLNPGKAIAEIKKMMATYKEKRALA", "T1 sequence (Q641Z9 30-169 partner limits assumed)": "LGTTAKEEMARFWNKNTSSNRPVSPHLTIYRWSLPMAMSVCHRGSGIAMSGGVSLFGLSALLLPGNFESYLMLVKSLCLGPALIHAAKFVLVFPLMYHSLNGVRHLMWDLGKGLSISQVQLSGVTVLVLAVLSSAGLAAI", "T1 sequence (Q6PCT8 57-159 partner)": "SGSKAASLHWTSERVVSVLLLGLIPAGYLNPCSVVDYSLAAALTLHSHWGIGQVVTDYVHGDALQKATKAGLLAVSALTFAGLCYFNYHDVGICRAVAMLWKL", "assay": "Site-specific H2O2 production from site IIF in skeletal muscle mitochondria", "format": "biochemical", "details": "primary screen, ∼2.5 µM, average of duplicates; palmitoylcarnitine", "outline": "as §1"}, "[6]": {"biological_target": "T2, outer ubiquinone-binding site of complex III (site IIIQo) (Rattus norvegicus, UniProt P00159+P20788)", "T2 construct": "from tissue; host or cells: skeletal muscle mitochondria", "assay": "Site-specific H2O2 production from site IIIQo in skeletal muscle mitochondria", "format": "biochemical", "details": "primary screen, ∼2.5 µM, average of duplicates; 5 mM succinate", "outline": "as §1"}}}
{"smiles": "O=C(O)CCC(=O)Nc1ccc(-c2nc3ccccc3[nH]2)cc1", "note": "[iGP-1]", "values": [{"measurement": "IF/DH (% change from DMSO)", "setting": "[1]", "result": 4.1, "unit": "%"}, {"measurement": "ΔΨm with GP + Nig (% change at 80 μM)", "setting": "[2]; 80 μM, 16.7 mM glycerol phosphate, 4 µM rotenone, nigericin", "result": -20, "unit": "%"}, {"measurement": "effect on ΔΨm powered by glycerol phosphate", "setting": "[2]; 8, 25, and 80 µM", "result": "significantly decreased"}, {"measurement": "effect on ΔΨm powered by 0.5 mM succinate", "setting": "[3]; 80 µM, 0.5 mM succinate", "result": "significantly decreased"}, {"measurement": "effect on ΔΨm powered by 5 mM succinate", "setting": "[3]; 5 mM succinate", "result": "no effect"}, {"measurement": "effect on glycerol phosphate-dependent respiration", "setting": "[4]; 25 and 80 µM, 16.7 mM glycerol phosphate, rotenone, 250 nM free calcium", "result": "significantly decreased"}, {"measurement": "effect on respiration on other substrates", "setting": "[4]; pyruvate and malate, glutamate and malate, succinate and rotenone", "result": "without altering"}, {"measurement": "IIF (% change from DMSO)", "setting": "[5]", "result": 3.6, "unit": "%"}, {"measurement": "IIIQo (% change from DMSO)", "setting": "[6]", "result": -0.246, "unit": "%"}]}
